Tests used:
Rattus norvegicus [1] = assay: Antiinflammatory activity in albino rat assessed as protection against carrageenan-induced paw edema at 25 mg/kg, po administered 1 hr prior to carrageenan challenge measured after 4 hrs relative to control; assay type: functional
Rattus norvegicus [2] = assay: In vivo inhibition of PGE2 in albino rat plasma at 50 mg/kg, po administered 1 hr prior to carrageenan challenge measured after 4 hrs by EIA relative to control; assay type: functional
Rattus norvegicus [3] = assay: Antiinflammatory activity in albino rat assessed as protection against carrageenan-induced paw edema at 50 mg/kg, po administered 1 hr prior to carrageenan challenge measured after 4 hrs relative to control; assay type: functional
Rattus norvegicus [4] = assay: In vivo inhibition of PGE2 in albino rat plasma at 25 mg/kg, po administered 1 hr prior to carrageenan challenge measured after 4 hrs by EIA relative to control; assay type: functional
[5] = Acute toxicity in rat; assay type: organism-based; conditions: in vivo

SMILES | Activity (Rattus norvegicus [1]) [%] | inhibition in vivo at 50 mg/kg (Rattus norvegicus [2]) [%] | Activity (Rattus norvegicus [3]) [%] | inhibition in vivo at 25 mg/kg (Rattus norvegicus [4]) [%] | LD50 [5] [mg/kg]
COc1ccc(C2CC(c3ccc(NC(=O)c4cc(Cl)ccc4OC)cc3)=NN2)cc1 (centres undefined) | 82.55 | 83 | 89 | 70.5 | 
COc1ccc(Cl)cc1C(=O)Nc1ccc(C2=NNC(c3ccccc3[N+](=O)[O-])C2)cc1 (centres undefined) | 88.3 | 84.5 | 90.89 | 72.3 | 
COc1ccc(Cl)cc1C(=O)Nc1ccc(C2=NNC(c3ccc([N+](=O)[O-])cc3)C2)cc1 (centres undefined) | 91.25 | 86.3 | 95.3 | 76.3 | 
COc1ccc(C2CC(c3ccc(NC(=O)c4cc(Cl)ccc4OC)cc3)=NN2C(C)=O)cc1 (centres undefined) | 86 | 88.4 | 90.2 | 79.4 | 
COc1ccc(Cl)cc1C(=O)Nc1ccc(C2=NN(C(C)=O)C(c3ccccc3[N+](=O)[O-])C2)cc1 (centres undefined) | 92.16 | 87.2 | 96.15 | 77.2 | 
COc1ccc(Cl)cc1C(=O)Nc1ccc(C2=NN(CN3CCOCC3)C(c3ccc([N+](=O)[O-])cc3)C2)cc1 (centres undefined) | 94.13 | 90.1 | 97.9 | 80.1 | 
COc1ccc(/C=C/C(=O)c2ccc(NC(=O)c3cc(Cl)ccc3OC)cc2)cc1 | 79 | 79.2 | 93.1 | 68.1 | 2230
COc1ccc(Cl)cc1C(=O)Nc1ccc(C(=O)/C=C/c2ccccc2[N+](=O)[O-])cc1 | 81.8 | 80.4 | 85.85 | 69.1 | 2400
COc1ccc(Cl)cc1C(=O)Nc1ccc(C(=O)/C=C/c2ccc([N+](=O)[O-])cc2)cc1 |  |  |  |  | 1830
COc1ccc(C2CC(c3ccc(NC(=O)c4cc(Cl)ccc4OC)cc3)=NN2C)cc1 (centres undefined) | 88.1 | 81.8 | 93.15 | 69.6 | 2390
COc1ccc(Cl)cc1C(=O)Nc1ccc(C2=NN(C)C(c3ccccc3[N+](=O)[O-])C2)cc1 (centres undefined) | 96.45 | 91.2 | 99.5 | 83.8 | 2350
COc1ccc(Cl)cc1C(=O)Nc1ccc(C2=NN(C)C(c3ccc([N+](=O)[O-])cc3)C2)cc1 (centres undefined) | 93 | 83.2 | 97.4 | 71.3 | 2540
COc1ccc(C2CC(c3ccc(NC(=O)c4cc(Cl)ccc4OC)cc3)=NN2c2ccccc2)cc1 (centres undefined) | 94.82 | 90.2 | 98 | 82.3 | 2390
COc1ccc(Cl)cc1C(=O)Nc1ccc(C2=NN(c3ccccc3)C(c3ccccc3[N+](=O)[O-])C2)cc1 (centres undefined) | 80.18 | 84.3 | 88.4 | 73.3 | 2390
COc1ccc(Cl)cc1C(=O)Nc1ccc(C2=NN(c3ccccc3)C(c3ccc([N+](=O)[O-])cc3)C2)cc1 (centres undefined) | 90.85 | 85.3 | 94.1 | 75.3 | 2380
C[C@]12C=CC(=O)C=C1CC[C@@H]1[C@@H]2[C@@H](O)C[C@@]2(C)[C@H]1CC[C@]2(O)C(=O)CO [PREDNISOLONE] | 80.4 | 92.1 | 92.1 | 78.1 | 

From ChEMBL document CHEMBL2424639, “Synthesis and pharmacological activities of some novel 5-chloro-N-(4-(1,5-(disubstituted)-4,5-dihydro-1H-pyrazol-3-yl)phenyl)-2-methoxybenzamide derivatives” (Med Chem Res, 2013)
